From patent publication US12295939B2, “Substituted benzothiophene analogs as selective estrogen receptor degraders” (The Board of Trustees of the University of Illinois, priority 2018, dated 2025)

Legend:
[1] = system: tamoxifen-resistant MCF-7:5C breast cancer cells; assay: Growth inhibition in tamoxifen-resistant MCF-7:5C breast cancer cells; assay type: cell-based; conditions: MCF7:5C, MCF-7:5C cells; for IC50: assayed from 0.01 nM to 1 uM; for Emax: read-out: MCF7:5C Max efficacy (%)
[2] = system: tamoxifen-sensitive ER+ MCF-7:WS8 breast cancer cells; assay: Growth inhibition in tamoxifen-sensitive ER+ MCF-7:WS8 breast cancer cells; assay type: cell-based; conditions: MCF7:WS8, MCF-7:WS8 cells; for IC50: assayed from 0.01 nM to 1 uM; for Emax: read-out: MCF7:WS8 Max efficacy (%)
[3] = system: ER (ERE); assay: ER antagonism (ERE); assay type: cell-based
Description: (§1) Example compounds were assayed to determine ER downregulation, relative binding affinity, and ER antagonism.

[4] = molecular target: T1, ER (Homo sapiens, UniProt P03372); assay: Relative binding affinity (RBA)
T1 construct: endogenous in cells
T1 sequence (P03372 1-595): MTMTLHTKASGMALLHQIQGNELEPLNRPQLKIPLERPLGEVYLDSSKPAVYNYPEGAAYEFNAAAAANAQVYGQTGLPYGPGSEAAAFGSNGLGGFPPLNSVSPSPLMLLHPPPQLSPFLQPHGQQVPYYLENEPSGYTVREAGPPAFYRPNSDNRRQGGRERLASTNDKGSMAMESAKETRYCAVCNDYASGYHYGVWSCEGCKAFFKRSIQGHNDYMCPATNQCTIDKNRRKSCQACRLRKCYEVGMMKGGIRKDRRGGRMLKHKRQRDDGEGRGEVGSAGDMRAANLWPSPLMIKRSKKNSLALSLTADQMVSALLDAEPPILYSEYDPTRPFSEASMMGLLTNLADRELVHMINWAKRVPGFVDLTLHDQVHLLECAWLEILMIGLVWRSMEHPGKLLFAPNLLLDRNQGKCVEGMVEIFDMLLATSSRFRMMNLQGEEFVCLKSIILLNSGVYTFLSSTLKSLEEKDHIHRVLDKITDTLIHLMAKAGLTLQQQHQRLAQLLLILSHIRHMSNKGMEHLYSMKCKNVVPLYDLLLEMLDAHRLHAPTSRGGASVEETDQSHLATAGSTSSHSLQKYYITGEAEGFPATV
Description: as §1

Row | SMILES | IC50 [1] | Emax [1] | IC50 [2] | Emax [2] | IC50 [3] | RBA (%) [4]
1 | Cc1cc(F)cc(C)c1C(=O)c1sc2cc(O)ccc2c1Oc1ccc(OC2CN(C3CC3)C2)cc1 [Compound 67, (3-(4-((1-cyclopropylazetidin-3-yl)oxy)phenoxy)-6-hydroxybenzo[b]thiophen-2-yl)(4-fluoro-2,6-dimethylphenyl) methanone] | 1 ± 0.8 nM | 20% | 0.42 ± 0.04 nM | 65% |  | 
2 | Cc1ccc(C(=O)c2sc3cc(O)ccc3c2Oc2ccc(OCCN3CC(CF)C3)cc2)c(C)c1 [Compound 63, (2,4-dimethylphenyl)(3-(4-(2-(3-(fluoromethyl)azetidin-1-yl)ethoxy)phenoxy)-6-hydroxybenzo[b]thiophen-2-yl)methanone] | 0.56 ± 0.005 nM | 50% | 0.47 ± 0.009 nM | 65% | 7.4 ± 0.3 nM | 
3 | Cc1cc(O)ccc1C(=O)c1sc2cc(O)ccc2c1Oc1ccc(OCCN2CC(CF)C2)cc1 [Compound 2, (3-(4-(2-(3-(fluoromethyl)azetidin-1-yl)ethoxy)phenoxy)-6-hydroxybenzo[b]thiophen-2-yl)(4-hydroxy-2-methylphenyl) methanone] | 7.9 ± 0.15 nM | 45% | 0.5 ± 0.05 nM | 80% |  | 
4 | Cc1ccccc1C(=O)c1sc2cc(O)ccc2c1Oc1ccc(OC2CN(CCCF)C2)cc1 [Compound 20, (3-(4-((1-(3-fluoropropyl)azetidin-3-yl)oxy)phenoxy)-6-hydroxybenzo[b]thiophen-2-yl)(o-tolyl)methanone] | 4.9 ± 0.2 nM | 70% | 0.04 ± 0.006 nM | 75% | 5.3 ± 0.08 nM | 27.8 ± 8%
5 | O=C(c1ccccc1)c1sc2cc(O)ccc2c1Oc1ccc(OC2CN(CCCF)C2)cc1 [Compound 15, (3-(4-((1-(3-fluoropropyl)azetidin-3-yl)oxy)phenoxy)-6-hydroxybenzo[b]thiophen-2-yl)(phenyl)methanone] | 0.12 ± 0.02 nM | 40% | 0.15 ± 0.02 nM | 60% | 5.2 ± 0.06 nM | 
6 | Cc1ccccc1C(=O)c1sc2cc(O)ccc2c1Oc1ccc(OCCN2CCCCC2)cc1 [Compound 65, (6-hydroxy-3-(4-(2-(piperidin-1-yl)ethoxy)phenoxy)benzo[b]thiophen-2-yl)(o-tolyl)methanone] | > 1000 nM |  | 0.39 ± 0.05 nM | 65% | 2.1 ± 0.06 nM | 91.8 ± 6%
7 | Cc1cc(F)cc(C)c1C(=O)c1sc2cc(O)ccc2c1Oc1ccc(OCCN2CC(CF)C2)cc1 [Compound 5, (4-fluoro-2,6-dimethylphenyl)(3-(4-(2-(3-(fluoromethyl)azetidin-1-yl)ethoxy)phenoxy)-6-hydroxybenzo[b]thiophen-2-yl)methanone] | 3.4 ± 0.5 nM | 55% | 0.41 ± 0.01 nM | 70% | 3.5 ± 0.06 nM | 
8 | Cc1cc(F)ccc1C(=O)c1sc2cc(O)ccc2c1Oc1ccc(OC2CN(CCCF)C2)cc1 [Compound 16, (4-fluoro-2-methylphenyl)(3-(4-((1-(3-fluoropropyl)azetidin-3-yl)oxy)phenoxy)-6-hydroxybenzo[b]thiophen-2-yl)methanone] | 0.95 ± 0.04 nM | 50% | 0.15 ± 0.02 nM | 70% | 11 ± 0.5 nM | 38.1 ± 9%
9 | O=C(c1cccc(F)c1)c1sc2cc(O)ccc2c1Oc1ccc(OCCN2CC(CF)C2)cc1 [Compound 62, (3-(4-(2-(3-(fluoromethyl)azetidin-1-yl)ethoxy)phenoxy)-6-hydroxybenzo[b]thiophen-2-yl)(3-fluorophenyl) methanone] | 1.4 ± 0.2 nM | 60% | 0.28 ± 0.03 nM | 75% |  | 120 ± 13%
10 | Cc1ccccc1C(=O)c1sc2cc(O)ccc2c1Oc1ccc(OCCN2CC(CF)C2)cc1 [Compound 8, (3-(4-(2-(3-(fluoromethyl)azetidin-1-yl)ethoxy)phenoxy)-6-hydroxybenzo[b]thiophen-2-yl)(o-tolyl)methanone] | 0.65 ± 0.03 nM | 40% | 0.73 ± 0.02 nM | 70% | 1.5 ± 0.09 nM | 46.5 ± 7%
11 | Cc1cccc(C)c1C(=O)c1sc2cc(O)ccc2c1Oc1ccc(OCCN2CC[C@@H](CF)C2)cc1 [Compound 9, (R)-(2,6-dimethylphenyl)(3-(4-(2-(3-(fluoromethyl)pyrrolidin-1-yl)ethoxy)phenoxy)-6-hydroxybenzo[b]thiophen-2-yl)methanone] | 0.23 ± 0.06 nM | 25% | 0.1 ± 0.01 nM | 85% | 45 ± 15 nM | 
12 | C[C@]12CC[C@@H]3c4ccc(O)cc4C[C@@H](CCCCCCCCC[S+]([O-])CCCC(F)(F)C(F)(F)F)[C@H]3[C@@H]1CC[C@@H]2O (some centres unmarked) [Fulvestrant, fulvestrant, reference compound] | 1.9 ± 0.01 nM | 55% | 0.48 ± 0.03 nM | 75% | […] | 
13 | Cc1ccccc1C(=O)c1sc2cc(O)ccc2c1Oc1ccc(OCCN2CC(C)C2)cc1 [Compound 60, (6-hydroxy-3-(4-(2-(3-methylazetidin-1-yl)ethoxy)phenoxy)benzo[b]thiophen-2-yl)(o-tolyl)methanone] | 0.65 ± 0.01 nM | 55% | 0.02 ± 0.004 nM | 75% | 1.9 ± 0.06 nM | 
14 | Cc1cc(F)ccc1C(=O)c1sc2cc(O)ccc2c1Oc1ccc(OCCN2CC(CF)C2)cc1 [Compound 4, (4-fluoro-2-methylphenyl)(3-(4-(2-(3-(fluoromethyl)azetidin-1-yl)ethoxy)phenoxy)-6-hydroxybenzo[b]thiophen-2-yl)methanone] | 0.2 ± 0.02 nM | 50% | 0.3 ± 0.02 nM | 75% | 2.7 ± 0.09 nM | 
15 | Cc1cc(F)cc(C)c1C(=O)c1sc2cc(O)ccc2c1Oc1ccc(OC2CN(CCCF)C2)cc1 [Compound 17, (4-fluoro-2,6-dimethylphenyl)(3-(4-((1-(3-fluoropropyl)azetidin-3-yl)oxy)phenoxy)-6-hydroxybenzo[b]thiophen-2-yl)methanone] | 0.15 ± 0.06 nM | 70% | 0.55 ± 0.01 nM | 75% |  | 
16 | Cc1cc(F)cc(C)c1C(=O)c1sc2cc(O)ccc2c1Oc1ccc(OCCN2CC[C@@H](CF)C2)cc1 [Compound 35, (R)-(4-fluoro-2,6-dimethylphenyl)(3-(4-(2-(3-(fluoromethyl)pyrrolidin-1-yl)ethoxy)phenoxy)-6-hydroxybenzo[b]thiophen-2-yl)methanone] | 0.28 ± 0.07 nM | 40% | 0.56 ± 0.01 nM | 65% | 12 ± 2 nM | 
17 | O=C(c1cccc(F)c1)c1sc2cc(O)ccc2c1Oc1ccc(OC2CN(CCCF)C2)cc1 [Compound 66, (3-fluorophenyl)(3-(4-((1-(3-fluoropropyl)azetidin-3-yl)oxy)phenoxy)-6-hydroxybenzo[b]thiophen-2-yl)methanone] | 0.12 ± 0.03 nM | 35% | 0.27 ± 0.006 nM | 70% |  | 
18 | Cc1ccccc1C(=O)c1sc2cc(O)ccc2c1Oc1ccc(OCCN2CCC2)cc1 [Compound 59, (3-(4-(2-(azetidin-1-yl)ethoxy)phenoxy)-6-hydroxybenzo[b]thiophen-2-yl)(o-tolyl)methanone] | 0.31 ± 0.07 nM | 35% | 0.5 ± 0.05 nM | 70% |  | 
19 | O=C(c1ccc(O)cc1)c1sc2cc(O)ccc2c1Oc1ccc(OCCN2CC(CF)C2)cc1 [Compound 1, (3-(4-(2-(3-(fluoromethyl)azetidin-1-yl)ethoxy)phenoxy)-6-hydroxybenzo[b]thiophen-2-yl)(4-hydroxyphenyl) methanone] | 1.2 ± 0.3 nM | 30% | 1.1 ± 0.1 nM | 75% | 6.4 ± 0.4 nM | 
20 | Cc1cc(F)cc(C)c1C(=O)c1sc2cc(O)ccc2c1Oc1ccc(OCCN2CC[C@H](CF)C2)cc1 [Compound 64, (S)-(4-fluoro-2,6-dimethylphenyl)(3-(4-(2-(3-(fluoromethyl)pyrrolidin-1-yl)ethoxy)phenoxy)-6-hydroxybenzo[b]thiophen-2-yl)methanone] | 0.16 ± 0.1 nM | 50% | 0.36 ± 0.001 nM | 70% | 0.05 ± 0.001 nM | 
21 | O=C(c1ccc(F)cc1)c1sc2cc(O)ccc2c1Oc1ccc(OCCN2CC(CF)C2)cc1 [Compound 61, (3-(4-(2-(3-(fluoromethyl)azetidin-1-yl)ethoxy)phenoxy)-6-hydroxybenzo[b]thiophen-2-yl)(4-fluorophenyl) methanone] | 0.58 ± 0.04 nM | 55% | 1.3 ± 0.1 nM | 70% | 2.8 ± 0.1 nM | 9.15 ± 0.9%
22 | O=C(c1ccccc1)c1sc2cc(O)ccc2c1Oc1ccc(OCCN2CC(CF)C2)cc1 [Compound 3, (3-(4-(2-(3-(fluoromethyl)azetidin-1-yl)ethoxy)phenoxy)-6-hydroxybenzo[b]thiophen-2-yl)(phenyl)methanone] | 15 ± 4 nM | 60% | 0.55 ± 0.01 nM | 65% | 4.3 ± 0.1 nM | 30.7 ± 7%
